Test results as given in ChEMBL document CHEMBL1201862, “PubChem BioAssay data set” (2004).
Activity calls are given as the source filed them.

Columns and labels:
cells [1] = format: functional, cell-based
cells [2] = format: functional, cell-based; remark: listed apart in the source
Leucine aminopeptidase = molecular target: T1, Leucine aminopeptidase (Plasmodium falciparum 3D7, UniProt Q8IL11); experiment: P. falciparum M17LAP inhibitors, primary screen, biochemical, fluorogenic H-Leu-NHMec substrate, 1536-well (AID 1619); format: functional
T1 sequence (Q8IL11 whole entry): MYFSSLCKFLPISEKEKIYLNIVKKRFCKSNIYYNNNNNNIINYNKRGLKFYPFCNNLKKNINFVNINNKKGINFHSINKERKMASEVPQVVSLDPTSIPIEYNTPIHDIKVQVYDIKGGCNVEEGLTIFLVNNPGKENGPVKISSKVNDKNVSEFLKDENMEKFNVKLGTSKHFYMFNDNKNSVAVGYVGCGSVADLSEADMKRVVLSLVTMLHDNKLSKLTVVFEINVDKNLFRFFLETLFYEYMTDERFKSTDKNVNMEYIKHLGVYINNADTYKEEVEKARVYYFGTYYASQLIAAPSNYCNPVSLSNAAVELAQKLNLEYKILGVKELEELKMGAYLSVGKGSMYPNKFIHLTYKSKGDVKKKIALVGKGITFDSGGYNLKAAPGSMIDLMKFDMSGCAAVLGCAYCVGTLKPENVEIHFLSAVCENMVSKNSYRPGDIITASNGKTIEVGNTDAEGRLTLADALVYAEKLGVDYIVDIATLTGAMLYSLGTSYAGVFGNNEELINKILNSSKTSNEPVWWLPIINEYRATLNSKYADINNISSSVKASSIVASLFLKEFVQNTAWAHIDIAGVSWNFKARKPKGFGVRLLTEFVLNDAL

Cytochrome P450 2C19 = Cytochrome P450 2C19 (Homo sapiens, UniProt P33261); experiment: Cytochrome panel assay with activity outcomes. Panel member name: p450-cyp2c19 Compounds with AC50 equal or less than 10 uM are considered active; format: functional; settings: read-out: AC50
Chain of Cytochrome P450 2C19 (P33261 whole entry): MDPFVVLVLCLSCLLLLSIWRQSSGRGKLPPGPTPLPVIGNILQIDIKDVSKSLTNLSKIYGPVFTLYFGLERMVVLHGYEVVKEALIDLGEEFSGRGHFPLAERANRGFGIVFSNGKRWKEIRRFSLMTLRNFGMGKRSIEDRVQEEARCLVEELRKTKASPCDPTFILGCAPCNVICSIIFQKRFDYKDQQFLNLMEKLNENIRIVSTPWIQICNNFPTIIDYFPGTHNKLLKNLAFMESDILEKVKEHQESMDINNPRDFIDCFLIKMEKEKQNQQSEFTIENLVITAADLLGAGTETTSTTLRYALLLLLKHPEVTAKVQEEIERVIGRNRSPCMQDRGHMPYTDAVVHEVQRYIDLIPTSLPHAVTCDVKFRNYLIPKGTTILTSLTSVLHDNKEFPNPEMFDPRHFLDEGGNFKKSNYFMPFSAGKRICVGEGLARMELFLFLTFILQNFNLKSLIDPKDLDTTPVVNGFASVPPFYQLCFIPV

Cytochrome P450 1A2 = molecular target: T2, Cytochrome P450 1A2 (Homo sapiens, UniProt P05177);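 note: PubChem cytochrome P450 panel assay, CYP1A2 panel member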
T2 sequence (P05177 whole entry): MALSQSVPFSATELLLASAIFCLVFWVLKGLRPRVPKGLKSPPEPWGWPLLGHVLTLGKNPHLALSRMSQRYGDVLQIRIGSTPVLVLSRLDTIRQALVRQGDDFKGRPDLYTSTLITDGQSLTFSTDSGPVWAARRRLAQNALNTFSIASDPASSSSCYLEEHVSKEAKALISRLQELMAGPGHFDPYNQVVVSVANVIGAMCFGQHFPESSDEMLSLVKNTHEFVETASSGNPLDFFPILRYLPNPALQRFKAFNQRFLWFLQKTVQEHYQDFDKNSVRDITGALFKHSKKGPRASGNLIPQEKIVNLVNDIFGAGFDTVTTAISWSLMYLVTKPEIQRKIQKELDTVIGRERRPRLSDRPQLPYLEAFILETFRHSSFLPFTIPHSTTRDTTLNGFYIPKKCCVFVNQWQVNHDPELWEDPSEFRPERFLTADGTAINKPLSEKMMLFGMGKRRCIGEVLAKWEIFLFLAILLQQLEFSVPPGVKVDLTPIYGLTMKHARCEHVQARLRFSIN

Cytochrome P450 2C9 = Cytochrome P450 2C9 (Homo sapiens, UniProt P11712)
Chain of Cytochrome P450 2C9 (P11712 whole entry): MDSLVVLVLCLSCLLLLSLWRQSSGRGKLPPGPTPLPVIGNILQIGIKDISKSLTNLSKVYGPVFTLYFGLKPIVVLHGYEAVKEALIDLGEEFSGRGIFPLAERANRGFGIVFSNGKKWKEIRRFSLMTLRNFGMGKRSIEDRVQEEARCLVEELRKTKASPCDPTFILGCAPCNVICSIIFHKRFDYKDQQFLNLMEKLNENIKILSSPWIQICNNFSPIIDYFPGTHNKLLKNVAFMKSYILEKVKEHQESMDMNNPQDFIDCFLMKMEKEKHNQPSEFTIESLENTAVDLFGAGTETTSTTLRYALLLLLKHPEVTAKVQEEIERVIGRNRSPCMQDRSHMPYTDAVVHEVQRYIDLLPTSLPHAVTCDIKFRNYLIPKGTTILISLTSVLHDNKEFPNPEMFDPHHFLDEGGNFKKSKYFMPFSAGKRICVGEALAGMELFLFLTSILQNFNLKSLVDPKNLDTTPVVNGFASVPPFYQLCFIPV

[3] = viability of uninfected HEp-2 cells – cell-based, HTS, cytotoxicity control for RSV inhibitor project, dose response (AID 2410); format: functional; settings: human respiratory syncytial virus
Fatty acid synthase = Fatty acid synthase (Homo sapiens, UniProt P49327); experiment: inhibition of human FAS-TE enzyme activity – biochemical, kinetic fluorescence intensity, dose response (AID 624326); format: functional;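 note: rate of fluorescence rise from hydrolysis of a fluorogenic O-methyl fluorescein ester substrate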
Chain of Fatty acid synthase (P49327 whole entry): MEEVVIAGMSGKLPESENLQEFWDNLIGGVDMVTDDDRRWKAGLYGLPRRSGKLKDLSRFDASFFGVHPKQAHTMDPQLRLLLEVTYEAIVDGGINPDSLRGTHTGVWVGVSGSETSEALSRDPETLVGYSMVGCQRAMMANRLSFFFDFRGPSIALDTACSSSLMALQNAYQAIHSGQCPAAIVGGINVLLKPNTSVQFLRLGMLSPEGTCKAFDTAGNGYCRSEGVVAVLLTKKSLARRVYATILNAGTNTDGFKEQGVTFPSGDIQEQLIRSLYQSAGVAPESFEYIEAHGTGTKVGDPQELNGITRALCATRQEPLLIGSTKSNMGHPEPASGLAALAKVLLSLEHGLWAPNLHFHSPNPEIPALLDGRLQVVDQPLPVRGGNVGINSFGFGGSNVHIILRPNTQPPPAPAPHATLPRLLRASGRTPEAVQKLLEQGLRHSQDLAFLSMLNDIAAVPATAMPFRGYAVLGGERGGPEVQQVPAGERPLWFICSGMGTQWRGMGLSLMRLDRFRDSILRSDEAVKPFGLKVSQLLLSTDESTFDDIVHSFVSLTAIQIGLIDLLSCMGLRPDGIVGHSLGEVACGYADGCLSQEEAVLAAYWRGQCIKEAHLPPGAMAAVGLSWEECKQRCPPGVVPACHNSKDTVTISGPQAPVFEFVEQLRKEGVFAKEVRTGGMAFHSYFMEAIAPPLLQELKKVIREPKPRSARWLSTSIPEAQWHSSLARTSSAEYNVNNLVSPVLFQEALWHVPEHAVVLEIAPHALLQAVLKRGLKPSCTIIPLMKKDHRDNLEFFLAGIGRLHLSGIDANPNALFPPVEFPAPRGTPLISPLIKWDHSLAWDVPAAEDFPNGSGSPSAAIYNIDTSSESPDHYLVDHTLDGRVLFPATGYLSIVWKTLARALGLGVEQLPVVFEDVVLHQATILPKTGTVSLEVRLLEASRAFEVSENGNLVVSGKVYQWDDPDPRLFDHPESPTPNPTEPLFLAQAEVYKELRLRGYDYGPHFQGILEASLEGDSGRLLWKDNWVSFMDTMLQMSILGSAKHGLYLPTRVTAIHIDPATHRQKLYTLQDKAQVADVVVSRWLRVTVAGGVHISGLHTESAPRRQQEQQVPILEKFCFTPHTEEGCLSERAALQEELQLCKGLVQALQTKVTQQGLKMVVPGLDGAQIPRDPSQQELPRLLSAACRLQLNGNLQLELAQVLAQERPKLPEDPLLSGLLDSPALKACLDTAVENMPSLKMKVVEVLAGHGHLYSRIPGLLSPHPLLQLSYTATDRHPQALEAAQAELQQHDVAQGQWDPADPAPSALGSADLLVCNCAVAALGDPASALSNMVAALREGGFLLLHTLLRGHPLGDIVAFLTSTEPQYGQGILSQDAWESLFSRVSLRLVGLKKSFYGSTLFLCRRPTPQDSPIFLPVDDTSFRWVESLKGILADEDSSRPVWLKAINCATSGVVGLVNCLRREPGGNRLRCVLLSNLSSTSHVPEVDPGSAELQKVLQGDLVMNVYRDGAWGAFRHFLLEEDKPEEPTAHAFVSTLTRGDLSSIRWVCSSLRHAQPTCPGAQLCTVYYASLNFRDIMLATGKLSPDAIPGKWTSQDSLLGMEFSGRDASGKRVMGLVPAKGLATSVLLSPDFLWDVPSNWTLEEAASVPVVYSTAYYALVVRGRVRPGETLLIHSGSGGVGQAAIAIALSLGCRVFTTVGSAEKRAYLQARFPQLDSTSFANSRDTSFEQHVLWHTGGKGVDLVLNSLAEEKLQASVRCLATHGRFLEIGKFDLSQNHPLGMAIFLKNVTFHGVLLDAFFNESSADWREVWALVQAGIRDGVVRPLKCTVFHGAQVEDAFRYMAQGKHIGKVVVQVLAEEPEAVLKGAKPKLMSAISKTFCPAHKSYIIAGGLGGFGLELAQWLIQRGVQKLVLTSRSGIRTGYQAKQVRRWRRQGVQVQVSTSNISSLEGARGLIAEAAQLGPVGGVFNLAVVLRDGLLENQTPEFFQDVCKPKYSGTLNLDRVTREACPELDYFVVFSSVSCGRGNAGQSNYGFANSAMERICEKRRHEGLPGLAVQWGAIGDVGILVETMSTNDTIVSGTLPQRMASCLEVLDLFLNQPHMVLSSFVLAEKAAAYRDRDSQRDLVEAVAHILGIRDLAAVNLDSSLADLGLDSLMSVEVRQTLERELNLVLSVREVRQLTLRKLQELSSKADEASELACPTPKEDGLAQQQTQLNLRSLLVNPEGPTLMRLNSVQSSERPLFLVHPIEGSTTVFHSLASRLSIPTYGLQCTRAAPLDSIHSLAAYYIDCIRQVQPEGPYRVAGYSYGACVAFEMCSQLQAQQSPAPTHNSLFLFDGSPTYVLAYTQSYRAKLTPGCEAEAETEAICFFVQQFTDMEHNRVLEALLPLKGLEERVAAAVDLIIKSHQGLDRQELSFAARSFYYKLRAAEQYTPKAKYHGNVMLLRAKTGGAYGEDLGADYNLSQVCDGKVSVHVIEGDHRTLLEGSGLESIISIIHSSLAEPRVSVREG

[4] = system: Streptococcus sp. 'group A'; experiment: Streptococcus pyogenes SK(-)GAS viability under kanamycin – luminescence, BacTiterGlo, confirmation, counter-screen for streptokinase expression inhibitor project, dose response (AID 1900); format: functional, organism-based
[5] = Luminescence Cell-Based Dose Confirmation HTS to Identify Inhibitors of Platelet Dense Granule Release. [Related pubchem assays: 1663 (Primary HTS), 1678 (Summary of Project)]; format: functional
Streptokinase A = molecular target: T3, Streptokinase A (Streptococcus pyogenes serotype M1, UniProt P10520); experiment: viability-normalized secreted streptokinase activity reduction – plasminogen activation absorbance, OD405, dose response (AID 1914); format: functional, Streptococcus pyogenes M1 GAS;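 note: secreted streptokinase activity via plasminogen activation per viability signal from cell pellet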
T3 sequence (P10520 whole entry): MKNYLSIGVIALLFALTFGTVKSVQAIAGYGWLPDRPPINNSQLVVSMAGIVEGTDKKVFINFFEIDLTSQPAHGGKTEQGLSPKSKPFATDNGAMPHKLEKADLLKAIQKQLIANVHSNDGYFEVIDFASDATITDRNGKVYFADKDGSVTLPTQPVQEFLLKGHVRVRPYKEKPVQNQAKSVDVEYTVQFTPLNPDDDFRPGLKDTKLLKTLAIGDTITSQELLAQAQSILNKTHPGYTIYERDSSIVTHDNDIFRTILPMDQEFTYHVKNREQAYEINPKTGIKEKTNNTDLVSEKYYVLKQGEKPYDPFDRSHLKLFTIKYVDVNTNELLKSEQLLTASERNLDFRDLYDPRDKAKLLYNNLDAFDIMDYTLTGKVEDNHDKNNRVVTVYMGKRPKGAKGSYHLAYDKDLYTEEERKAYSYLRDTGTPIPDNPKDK

Streptococcus = experiment: GAS UMAA2166 growth inhibition – luminescence, BacTiterGlo, counter-screen for streptokinase expression inhibitor project, dose response (AID 1915); format: functional, organism-based;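 note: potency for reduction of bacterial viability or growth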
[6] = molecular target: Luciferin 4-monooxygenase (Photinus pyralis, UniProt P08659); experiment: inhibition of purified Photinus pyralis luciferase – biochemical, luminescence, dose response (AID 1891)
Chain of Luciferin 4-monooxygenase (P08659 whole entry): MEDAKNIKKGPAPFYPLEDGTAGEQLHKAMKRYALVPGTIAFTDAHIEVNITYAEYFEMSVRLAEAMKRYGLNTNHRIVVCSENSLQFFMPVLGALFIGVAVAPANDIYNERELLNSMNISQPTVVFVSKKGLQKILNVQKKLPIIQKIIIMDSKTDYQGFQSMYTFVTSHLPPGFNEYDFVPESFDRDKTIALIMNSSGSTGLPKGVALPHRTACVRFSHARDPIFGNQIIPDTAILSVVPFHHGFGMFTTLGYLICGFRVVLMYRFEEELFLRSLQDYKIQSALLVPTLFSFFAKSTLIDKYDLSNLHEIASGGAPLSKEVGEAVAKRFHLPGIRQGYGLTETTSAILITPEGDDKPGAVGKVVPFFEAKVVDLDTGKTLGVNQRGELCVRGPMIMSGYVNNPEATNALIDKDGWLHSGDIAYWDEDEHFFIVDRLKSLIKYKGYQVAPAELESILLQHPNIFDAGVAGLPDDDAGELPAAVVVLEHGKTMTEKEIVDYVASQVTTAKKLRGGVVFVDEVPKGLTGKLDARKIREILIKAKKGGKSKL

[7] = Luminescence Cell-Based Dose Response HTS to Identify Activators of Luciferase Translation or Activity in H4 […] Cells. [Related pubchem assays: 1829 (Project Summary), 1814 (Primary HTS)]; format: functional
H4 = experiment: Luminescence Cell-Based Dose Response HTS to Identify Activators of 5'UTR Stem-Loop Driven Prion Protein mRNA Translation in H4 Neuroglioblastoma Cells. [Related pubchem assays: 1829 (Project Summary), 1814 (Primary HTS)]; format: functional; settings: Homo sapiens
[8] = Luminescence Cell-Based Dose Confirmation HTS to Identify Activators of 5'UTR Stem-Loop Driven Alpha-Synuclein mRNA Translation in H4 Neuroglioblastoma Cells. [Related pubchem assays: 1829 (Project Summary), 1814 (Primary HTS)]; format: functional

Compound: S=C(Nc1ccc2c[nH]nc2c1)Nc1ccccc1Cl
- EC50 (cells [1]): > 350 µM (not active)
- EC50 (cells [2]): > 350 µM (not active)

Compound: COc1ccc(C2CC(=O)c3sc(N)nc3C2)cc1 (stereo unspecified)
- IC50 (Leucine aminopeptidase): 30.1 µM (active)

Compound: CC(OC(=O)Cn1c(C(F)(F)F)nc2ccccc21)C(N)=O (stereo unspecified)
- AC50 (Cytochrome P450 2C19): 28.2 µM (inconclusive)
- AC50 (Cytochrome P450 1A2): 25.1 µM (inconclusive)
- AC50 (Cytochrome P450 2C9): 0.631 µM (inconclusive)

Compound: CN(CC(=O)Nc1ccc(Cl)c(C(F)(F)F)c1)C(=O)CCCNC(=O)c1ccc(Cl)cc1
- CC50 [3]: 2.49 µM (active)

Compound: O=C(O)c1ccccc1Nc1ccc([N+](=O)[O-])cc1C(=O)O
- EC50 (cells [1]): > 350 µM (not active)
- EC50 (cells [2]): > 350 µM (not active)

Compound: CC(C)(C)c1nc2scc(-c3cccs3)c2c(=O)o1
- IC50 (Fatty acid synthase): 3.42 µM (active)

Compound: CCOc1ccc(-c2nc3n(c(=O)c2C#N)CCCS3)cc1
- EC50 [4]: 11.9 µM (active)
- EC50 [5]: > 112 µM (not active)
- EC50 (Streptokinase A): > 150 µM (not active)
- EC50 (Streptococcus): 148 µM (active)
- EC50 [6]: > 112 µM (not active)

Compound: S=C(c1ccc(-c2cc(Cl)ccc2Cl)o1)N1CCCCC1
- CC50 [3]: > 50 µM (active)

Compound: COC(=O)c1ccc(C2C(C(=O)c3ccc4c(c3)CC(C)O4)=C(O)C(=O)N2Cc2ccncc2)cc1 (stereo unspecified)
- EC50 [5]: > 112 µM (not active)
- EC50 [6]: > 112 µM (not active)

Compound: Cc1ccc(NC(=O)c2nnn(-c3ccc4c(c3)OCCO4)c2N)cc1
- CC50 [3]: > 50 µM (active)

Compound: CCCNC(=O)c1cc2nc(-c3ccccc3)cc(C(F)(F)F)n2n1
- EC50 (cells [1]): > 350 µM (not active)
- EC50 (cells [2]): > 350 µM (not active)

Compound: Cc1ccc(NC(=O)CNc2cc(S(=O)(=O)N3CCOCC3)ccc2NCC2CCCO2)cc1F (stereo unspecified)
- EC50 [5]: > 112 µM (not active)
- EC50 [6]: > 112 µM (not active)

Compound: CC(C)CN(CCNC(=O)c1cn(C)c2ccc(S(=O)(=O)N3CCCC3)cc2c1=O)CC(C)C
- EC50 (cells [1]): > 350 µM (not active)
- EC50 (cells [2]): > 350 µM (not active)

Compound: CCC(c1nnnn1Cc1ccccc1)N(Cc1ccco1)Cc1cc2cc(OC)ccc2nc1O (stereo unspecified)
- EC50 [5]: > 112 µM (not active)
- EC50 [6]: > 112 µM (not active)

Compound: COc1ccc(CCn2ccc(O)c(Cc3ccc(Cl)cc3)c2=O)cc1OC
- CC50 [3]: 20 µM (active)

Compound: COc1ccc(-c2csc(NC(=O)c3cc(C)oc3C)n2)cc1OC
- CC50 [3]: 26.6 µM (active)

Compound: NC(=O)c1nsc(C(=O)N(CC(=O)NC2CCCC2)c2cnc3ccccc3c2)c1N
- EC50 [5]: 17.1 µM (active)
- EC50 [6]: > 112 µM (not active)

Compound: Cc1ccc(NC(=O)NC2=NN(c3ccccc3)C(=O)/C2=C2/CCCN2C)cc1
- EC50 [7]: 18.1 µM (active)
- EC50 (H4): 14.4 µM (active)
- EC50 [8]: 32.5 µM (active)

Compound: Cc1ccccc1-c1cc(C(=O)n2cccn2)c2cc(Cl)ccc2n1
- AC50 (Cytochrome P450 2C19): 7.08 µM (inconclusive)
- AC50 (Cytochrome P450 1A2): 17.8 µM (inconclusive)
